Experiment [1] concerns Rigidoporus microporus BCRC 35318 laccase Lcc35, native (wild type), mature form SEQ ID NO:1. Put plainly: Inhibitor effects on Lcc35 laccase activity (ABTS as the substrate). It counts as biochemical, R. microporus BCRC 35318. As to conditions: 10 min; for Relative activity (residual laccase activity with inhibitor; None = 100.0): pre-incubated pH 5.0, 30° C. The procedure: (§1) To isolate the laccase from R. microporus BCRC 35318, eight-day-old mycelial disks (8 mm in diameter) collected from the PDA plate mentioned above were inoculated into a basal medium containing (per liter) 10 g glucose, 0.22 g ammonium tartrate, 0.9 g K2HPO4, 0.1 g KH2PO4, 0.05 g MgSO4.7H2O, 0.5 g CaCl2, 0.01 g Thiamine HCl, and 10 ml solution (0.08 g CuSO4.5H2O, 0.07 g MnSO4.4H2O, 4.3 g ZnSO4.7H2O and 0.05 g FeSO4.7H2O per liter). The pH of the medium was adjusted to 5.5. After being cultured for 10 days at 30° C. in a rotary shaker with a speed setting of 125 rpm, the supernatant of the fungal culture thus obtained was collected and passed through a […] filter (Nalgene) to remove fungal cells. The filtrate was mixed with 100% ammonium sulfate for protein precipitation. The precipitated proteins were dissolved in 40 ml of a 10 mM sodium acetate buffer (pH 6.0) and the resultant solution was dialyzed against the same acetate buffer overnight to remove co-precipitated ammonium sulfate and then concentrated to 4 ml by ultracentrifugal filteration with a molecular cutoff of 10 kDa (Amicon).
Next, the laccase activities of Lcc35 under various pH conditions were determined, following the method described in Lu et al., Appl. Microbiol. Biotechnol., 2007, 74, (6), 1232-1239. 0.01 ml of the Lcc35-containing solution was mixed with (i) 0.49 ml of a 50 mM reaction buffer of glycine-HCl (pH 2.0 to 3.0), sodium acetate (pH 4.0 to 6.0), or sodium phosphate (pH 7.0 to 8.0) and (ii) 0.5 ml of a substrate solution containing 2 mM ABTS, 1 mM [N,N′-bis(3,5-dimethoxy-4-hydroxybenzylidene)hydrazine] (SGZ), or 0.04% RBBR. After being incubated at 30° C. for 1 min (when ABST or SGZ was the substrate) or for 4 hours (when RBBR was the substrate), each of the reaction mixtures was examined with a spectrophotometer to determine its optical density at 420 nm (when ABST was the substrate), at 530 nm (when SGZ was the substrate), or at 585 nm (when RBBR was the substrate). One unit of laccase activity was defined as the amount of Lcc35 that oxidized 1 μmol substrate per min. […]

Another experiment deals with Lcc35. The experiment in a line: Inhibitor effects on Lcc35 laccase activity. The format is biochemical, R. microporus BCRC 35318. As to conditions: ABTS substrate; for Relative activity (%) of Lcc35: pre-incubation pH 5.0, 30° C., 10 min. As for the experimental part: The inhibitory effects of NaN3, ethylenediaminetetraacetic acid (EDTA), dithiothreitol (DTT), and L-Cysteine on Lcc35 were examined as follows. Lcc35 was pre-incubated in a solution (pH 5.0) containing one of the test compounds at 30° C. for 10 min. The laccase activity was then examined using ABTS as the substrate.

Experiment [2] concerns Rigidoporus microporus BCRC 35318 laccase Lcc35, native (wild type), mature form SEQ ID NO:1. The experiment in a line: Kinetic constants of Lcc35 for digesting ABTS and SGZ (initial reaction rates at various substrate concentrations). It counts as biochemical, R. microporus BCRC 35318. As for the experimental part:
The pH of the medium was adjusted to 5.5. After being cultured for 10 days at 30° C. in a rotary shaker with a speed setting of 125 rpm, the supernatant of the fungal culture thus obtained was collected and passed through a […] filter (Nalgene) to remove fungal cells. […] The precipitated proteins were dissolved in 40 ml of a 10 mM sodium acetate buffer (pH 6.0) and the resultant solution was dialyzed against the same acetate buffer overnight to remove co-precipitated ammonium sulfate and then concentrated to 4 ml by ultracentrifugal filteration with a molecular cutoff of 10 kDa (Amicon). Next, the laccase activities of Lcc35 under various pH conditions were determined, following the method described in Lu et al., Appl. Microbiol. […] After being incubated at 30° C. for 1 min (when ABST or SGZ was the substrate) or for 4 hours (when RBBR was the substrate), each of the reaction mixtures was examined with a spectrophotometer to determine its optical density at 420 nm (when ABST was the substrate), at 530 nm (when SGZ was the substrate), or at 585 nm (when RBBR was the substrate). […] Kinetic constants of Lcc35 for digesting ABTS and SGZ were determined based on the initial reaction rates of Lcc35 at various substrate concentrations. The enzymatic reactions were taken place at pH 5 (for ABST) or pH 6 (for SGH) and 70° C.

Another experiment deals with R. microporus BCRC 35318. The experiment in a line: Effects of inducers on laccase production in R. microporus. It counts as cell-based. The settings on record: for Yield of laccase production: inducer 1 mM in basal medium. As for the experimental part: as §1
R. microporus BCRC 35318 cells were cultured in the basal medium described in Example 1 above, which was supplemented with veratryl alcohol, 4-hydroxybenxoic acid, ferulic acid, or rice straw powder. Lcc35 were isolated from the culture supernatants following the method also described above and its activity was determined.

Setting [3] is: substrate SGZ, pH 6, 70° C., 530 nm.
Setting [4] is: substrate ABTS, pH 5, 70° C., 420 nm.

Results on nine molecules are retold here after patent US20100184186A1, “NOVEL RIGIDOPORUS MICROPORUS LACCASE” (Academia Sinica, priority 2009, published 2010).

As a reminder, the Km is the substrate concentration at which the rate is half of its maximum.

The structures appear in SMILES notation.

For `[N-]=[N+]=[N-].[Na+]` [NaN3], the “Relative activity (residual laccase activity with inhibitor; None = 100.0)” value in experiment [1] (0.1 mM compound) came out at 50.0%; in experiment [1] (1.0 mM compound) it was 17.0%. Further, the “inhibitory effect on Lcc35 (in words)” value in experiment [1] (concentrations of Table 2, pH 5.0, 30° C.) was “substantially inhibited”. For the same molecule, in the experiment with Lcc35, the “inhibitory effect on Lcc35 activity (in words)” value is given as “substantially inhibited”. Besides, the “Relative activity (%) of Lcc35” value in the experiment on Lcc35 (compound 0.1 mM) is on record as 50.0%; with Lcc35 (compound 1.0 mM) it was 17.0%.
For `COc1cc(/C=N/N=C/c2cc(OC)c(O)c(OC)c2)cc(OC)c1O` [SGZ, N,N′-bis(3,5-dimethoxy-4-hydroxybenzylidene)hydrazine], in experiment [2] (setting [3]), the Kcat stood at 750 s⁻¹ and the Km was 7 µM.
Regarding `N[C@@H](CS)C(=O)O` [L-Cysteine], the “Relative activity (%) of Lcc35” value worked out at 97.2% with Lcc35 (compound 0.1 mM) and 92.7% in the experiment with Lcc35 (compound 1.0 mM).
For `O[C@H](CS)[C@H](O)CS` (racemic) [DTT, dithiothreitol] the same measures were 92.3% and 91.8%.
Consider `CCn1c(=NN=c2sc3cc(S(=O)(=O)O)ccc3n2CC)sc2cc(S(=O)(=O)O)ccc21` [ABTS, 2,2-azinobis(3-ethylbenzathiazoline-6-sulfonic acid)], for which, in experiment [2] (setting [4]), the Kcat amounted to 730 s⁻¹ and the Km is 53 µM.
In the case of `O=C(O)CN(CCN(CC(=O)O)CC(=O)O)CC(=O)O` [EDTA, ethylenediaminetetraacetic acid], the “Relative activity (%) of Lcc35” value in the experiment on Lcc35 (compound 10.0 mM) and with Lcc35 (compound 25.0 mM) was 100.0% throughout.
With `O=C(O)c1ccc(O)cc1` [4-Hydroxybenzoic acid, 4-hydroxybenzoic acid], the “Yield of laccase production” value with R. microporus BCRC 35318 was determined as 10.5 Unit ml^−1. In the experiment with R. microporus BCRC 35318 (versus no inducer), the “increase of Lcc35 production” value is 10.5 fold.
For the molecule `COc1cc(/C=C/C(=O)O)ccc1O` [Ferulic acid, ferulic acid], the “Yield of laccase production” value with R. microporus BCRC 35318 was determined as 2.4 Unit ml^−1.
For `COc1ccc(CO)cc1OC` [Veratryl alcohol, veratryl alcohol], the “Yield of laccase production” value with R. microporus BCRC 35318 stood at 3.4 Unit ml^−1.
